According to patent publication US11649255B2, “Indazoles as hematopoietic progenitor kinase 1 (HPK1) inhibitors and methods using same” (1st Biotherapeutics, Inc., priority 2020, dated 2023):

Target: recombinant human HPK1 (Homo sapiens (Human), UniProt Q92918)
Test: HPK1 kinase assay (ADP-Glo)
Type: biochemical
Conditions: 25 μM ATP, MBP substrate
In short: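 Activity was read as ADP formed, detected by ADP-Glo luminescence after the reaction of 5 ng recombinant human HPK1 with MBP and ATP (stocks 0.5 μg/μl and 25 μM) for 40 min at 30 °C. Buffer was Tris pH 7.5 with MgCl2, BSA and DTT, with compound in 0.5% DMSO. IC50 came from inhibition curves.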

Sequence of recombinant human HPK1 (Q92918 whole entry): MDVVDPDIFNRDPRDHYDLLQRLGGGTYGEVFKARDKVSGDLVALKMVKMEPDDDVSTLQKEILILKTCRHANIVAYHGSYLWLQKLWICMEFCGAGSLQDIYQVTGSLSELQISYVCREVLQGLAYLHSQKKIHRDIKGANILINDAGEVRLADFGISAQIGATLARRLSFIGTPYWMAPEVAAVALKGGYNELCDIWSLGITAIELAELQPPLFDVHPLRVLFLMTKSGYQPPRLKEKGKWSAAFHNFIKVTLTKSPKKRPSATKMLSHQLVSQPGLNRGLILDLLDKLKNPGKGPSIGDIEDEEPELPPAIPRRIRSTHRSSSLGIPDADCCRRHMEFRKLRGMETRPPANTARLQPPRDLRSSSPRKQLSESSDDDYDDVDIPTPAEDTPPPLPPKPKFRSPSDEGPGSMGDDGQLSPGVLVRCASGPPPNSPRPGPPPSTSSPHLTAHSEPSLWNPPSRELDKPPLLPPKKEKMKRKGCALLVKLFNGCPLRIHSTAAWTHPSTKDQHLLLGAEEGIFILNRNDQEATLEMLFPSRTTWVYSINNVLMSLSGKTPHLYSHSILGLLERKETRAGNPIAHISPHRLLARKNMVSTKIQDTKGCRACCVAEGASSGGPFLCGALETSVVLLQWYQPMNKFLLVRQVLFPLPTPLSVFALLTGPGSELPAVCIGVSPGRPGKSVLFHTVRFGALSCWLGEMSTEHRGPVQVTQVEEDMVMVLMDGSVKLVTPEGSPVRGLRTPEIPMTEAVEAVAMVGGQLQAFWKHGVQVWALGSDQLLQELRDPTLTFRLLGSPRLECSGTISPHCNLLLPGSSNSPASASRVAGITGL

Cc1c(F)c(Cl)c(-c2ccc3nc(NC(=O)[C@@H]4C[C@@H]4F)sc3c2)c2cn[nH]c12 [Example 57, (1S,2S)-N-(6-(5-chloro-6-fluoro-7-methyl-1H-indazol-4-yl)benzo[d]thiazol-2-yl)-2-fluorocyclopropane-1-carboxamide]
IC50: < 100 nM

CC(=O)c1ccc2[nH]ncc2c1-c1ccc2nc(NC(=O)C3CC3)cn2c1 [Example 239, N-(6-(5-acetyl-1H-indazol-4-yl)imidazo[1,2-a]pyridin-2-yl)cyclopropanecarboxamide]
IC50: < 100 nM

O=C(Nc1nc2ccc(-c3c(Cl)c(F)c(F)c4[nH]ncc34)nc2s1)[C@@H]1C[C@@H]1F [Example 208, (1S,2S)-N-(5-(5-chloro-6,7-difluoro-1H-indazol-4-yl)thiazolo[5,4-b]pyridin-2-yl)-2-fluorocyclopropane-1-carboxamide 2,2,2-trifluoroacetate]
IC50: < 100 nM

N#Cc1c(F)c(Cl)c(-c2ccn3nc(NC(=O)[C@@H]4C[C@@H]4F)cc3c2)c2cn[nH]c12 [Example 586, (1S,2S)-N-(5-(5-chloro-7-cyano-6-fluoro-1H-indazol-4-yl)pyrazolo[1,5-a]pyridin-2-yl)-2-fluorocyclopropane-1-carboxamide]
IC50: < 100 nM

C=CC(=O)Nc1cc(C)c(-c2ccc3nc(NC(=O)[C@@H]4C[C@@H]4F)cn3c2)c2cn[nH]c12 [Example 274, (1S,2S)-N-(6-(7-acrylamido-5-methyl-1H-indazol-4-yl)imidazo[1,2-a]pyridin-2-yl)-2-fluorocyclopropane-1-carboxamide]
IC50: < 100 nM

CSc1c(F)cc2[nH]ncc2c1-c1ccn2nc(NC(=O)[C@H]3C[C@H]3F)cc2c1 [Example 573, (1R,2R)-2-fluoro-N-(5-(6-fluoro-5-(methylthio)-1H-indazol-4-yl)pyrazolo[1,5-a]pyridin-2-yl)cyclopropane-1-carboxamide]
IC50: < 100 nM

CC(C)(O)c1c(F)c(Cl)c(-c2ccc3nc(NC(=O)[C@@H]4C[C@@H]4F)cn3c2)c2cn[nH]c12 [Example 389, (1S,2S)-N-(6-(5-chloro-6-fluoro-7-(2-hydroxypropan-2-yl)-1H-indazol-4-yl)imidazo[1,2-a]pyridin-2-yl)-2-fluorocyclopropane-1-carboxamide]
IC50: < 100 nM

COc1c(F)c(Cl)c(-c2ccc3nc(NC(=O)[C@@H]4C[C@@H]4F)cn3c2)c2cn[nH]c12 [Example 272, (1S,2S)-N-(6-(5-chloro-6-fluoro-7-methoxy-1H-indazol-4-yl)imidazo[1,2-a]pyridin-2-yl)-2-fluorocyclopropane-1-carboxamide]
IC50: < 100 nM

CC(=O)Nc1c(F)c(Cl)c(-c2ccc3nc(NC(=O)[C@@H]4C[C@@H]4F)sc3c2)c2cn[nH]c12 [Example 108, (1S,2S)-N-(6-(7-acetamido-5-chloro-6-fluoro-1H-indazol-4-yl)benzo[d]thiazol-2-yl)-2-fluorocyclopropane-1-carboxamide]
IC50: < 100 nM

C=Cc1ccc2[nH]ncc2c1-c1ccc2nc(NC(=O)[C@@H]3C[C@@H]3F)sc2c1 [Example 35, (1S,2S)-2-fluoro-N-(6-(5-vinyl-1H-indazol-4-yl)benzo[d]thiazol-2-yl)cyclopropane-1-carboxamide]
IC50: 101 to 500 nM

Cc1c(F)cc2[nH]nc(I)c2c1-c1ccc2nc(NC(=O)[C@@H]3C[C@@H]3F)sc2c1 [Example 45, (1S,2S)-2-fluoro-N-(6-(6-fluoro-3-iodo-5-methyl-1H-indazol-4-yl)benzo[d]thiazol-2-yl)cyclopropane-1-carboxamide]
IC50: > 1000 nM

CCOc1c(F)cc2[nH]ncc2c1-c1ccc2nc(NC(=O)[C@@H]3C[C@@H]3F)sc2n1 [Example 201, (1S,2S)-N-(5-(5-ethoxy-6-fluoro-1H-indazol-4-yl)thiazolo[5,4-b]pyridin-2-yl)-2-fluorocyclopropane-1-carboxamide]
IC50: > 1000 nM

CCOc1c(F)c(SC)c(-c2ccc3nc(NC(=O)[C@@H]4C[C@@H]4F)cn3c2)c2cn[nH]c12 [Example 310, (1S,2S)-N-(6-(7-ethoxy-6-fluoro-5-(methylthio)-1H-indazol-4-yl)imidazo[1,2-a]pyridin-2-yl)-2-fluorocyclopropane-1-carboxamide]
IC50: < 100 nM

CC(c1c(F)c(Cl)c(-c2ccc3nc(NC(=O)[C@@H]4C[C@@H]4F)cn3c2)c2cn[nH]c12)S(C)(=O)=O (stereo partly drawn) [Example 444, (1S,2S)-N-(6-(5-chloro-6-fluoro-7-(1-(methylsulfonyl)ethyl)-1H-indazol-4-yl)imidazo[1,2-a]pyridin-2-yl)-2-fluorocyclopropane-1-carboxamide]
IC50: < 100 nM

Cc1ccc2[nH]ncc2c1-c1ccc2nc(NC(=O)C3CCCC3)sc2c1 [Example 10, N-(6-(5-methyl-1H-indazol-4-yl)benzo[d]thiazol-2-yl)cyclopentanecarboxamide]
IC50: > 1000 nM

Cc1ccc2[nH]ncc2c1-c1ccc2nc(NC(=O)C3CC3CO)cn2c1 (stereo not shown) [Example 278, 2-(hydroxymethyl)-N-(6-(5-methyl-1H-indazol-4-yl)imidazo[1,2-a]pyridin-2-yl)cyclopropane-1-carboxamide]
IC50: > 1000 nM

C=CC(=O)Nc1cc2[nH]ncc2c(-c2ccc3nc(NC(=O)[C@@H]4C[C@@H]4F)cn3c2)c1C [Example 289, (1S,2S)-N-(6-(6-acrylamido-5-methyl-1H-indazol-4-yl)imidazo[1,2-a]pyridin-2-yl)-2-fluorocyclopropane-1-carboxamide]
IC50: > 1000 nM

CC(C)Oc1c(F)c(Cl)c(-c2ccc3nc(NC(=O)[C@@H]4C[C@@H]4F)cn3c2)c2cn[nH]c12 [Example 404, (1S,2S)-N-(6-(5-chloro-6-fluoro-7-isopropoxy-1H-indazol-4-yl)imidazo[1,2-a]pyridin-2-yl)-2-fluorocyclopropane-1-carboxamide]
IC50: < 100 nM

CC(=O)N(C)c1c(F)c(Cl)c(-c2ccc3nc(NC(=O)[C@@H]4C[C@@H]4F)sc3n2)c2cn[nH]c12 [Example 189, (1S,2S)-N-(5-(5-chloro-6-fluoro-7-(N-methylacetamido)-1H-indazol-4-yl)thiazolo[5,4-b]pyridin-2-yl)-2-fluorocyclopropane-1-carboxamide]
IC50: < 100 nM

CCc1c(F)c(SCC(=O)N(C)C)c2[nH]ncc2c1-c1ccc2nc(NC(=O)[C@@H]3C[C@@H]3F)sc2n1 [Example 166, (1S,2S)-N-(5-(7-((2-(dimethylamino)-2-oxoethyl)thio)-5-ethyl-6-fluoro-1H-indazol-4-yl)thiazolo[5,4-b]pyridin-2-yl)-2-fluorocyclopropane-1-carboxamide]
IC50: < 100 nM

Cc1c(F)c(F)c2[nH]nc(F)c2c1-c1ccc2nc(NC(=O)[C@@H]3C[C@@H]3F)sc2c1 [Example 55, (1S,2S)-2-fluoro-N-(6-(3,6,7-trifluoro-5-methyl-1H-indazol-4-yl)benzo[d]thiazol-2-yl)cyclopropane-1-carboxamide]
IC50: 101 to 500 nM

Cc1c(F)c(F)c2[nH]ncc2c1-c1ccc2nc(NC(=O)[C@@H]3C[C@@H]3F)cn2c1 [Example 262, (1S,2S)-N-(6-(6,7-difluoro-5-methyl-1H-indazol-4-yl)imidazo[1,2-a]pyridin-2-yl)-2-fluorocyclopropane-1-carboxamide]
IC50: < 100 nM

COc1ccc2[nH]ncc2c1-c1ccc2nc(NC(=O)C3CC3)cn2c1 [Example 224, N-(6-(5-methoxy-1H-indazol-4-yl)imidazo[1,2-a]pyridin-2-yl)cyclopropanecarboxamide]
IC50: 101 to 500 nM

Cc1c(F)cc2[nH]nc(Cl)c2c1-c1ccc2nc(NC(=O)[C@@H]3C[C@@H]3F)sc2c1 [Example 44, (1S,2S)-N-(6-(3-chloro-6-fluoro-5-methyl-1H-indazol-4-yl)benzo[d]thiazol-2-yl)-2-fluorocyclopropane-1-carboxamide]
IC50: 501 to 1000 nM

CCN(CC)c1c(F)c(Cl)c(-c2ccc3nc(NC(=O)[C@@H]4C[C@@H]4F)cn3c2)c2cn[nH]c12 [Example 281, (1S,2S)-N-(6-(5-chloro-7-(diethylamino)-6-fluoro-1H-indazol-4-yl)imidazo[1,2-a]pyridin-2-yl)-2-fluorocyclopropane-1-carboxamide]
IC50: < 100 nM

CSc1c(F)cc2[nH]ncc2c1-c1ccn2nc(NC(=O)[C@H]3C[C@@H]3F)cc2c1 [Example 571, (1R,2S)-2-fluoro-N-(5-(6-fluoro-5-(methylthio)-1H-indazol-4-yl)pyrazolo[1,5-a]pyridin-2-yl)cyclopropane-1-carboxamide]
IC50: < 100 nM

O=C(Nc1cc2cc(-c3c(Cl)c(F)c(N4CCOCC4)c4[nH]ncc34)ccn2n1)[C@@H]1C[C@@H]1F [Example 498, (1S,2S)-N-(5-(5-chloro-6-fluoro-7-morpholino-1H-indazol-4-yl)pyrazolo[1,5-a]pyridin-2-yl)-2-fluorocyclopropane-1-carboxamide]
IC50: < 100 nM

CC(C)c1c(F)cc2[nH]ncc2c1-c1ccn2nc(NC(=O)[C@@H]3C[C@@H]3F)cc2c1 [Example 462, (1S,2S)-2-fluoro-N-(5-(6-fluoro-5-isopropyl-1H-indazol-4-yl)pyrazolo[1,5-a]pyridin-2-yl)cyclopropane-1-carboxamide]
IC50: < 100 nM

COc1c(F)c(C)c(-c2ccn3nc(NC(=O)[C@@H]4C[C@@H]4F)cc3c2)c2cn[nH]c12 [Example 491, (1S,2S)-2-fluoro-N-(5-(6-fluoro-7-methoxy-5-methyl-1H-indazol-4-yl)pyrazolo[1,5-a]pyridin-2-yl)cyclopropane-1-carboxamide]
IC50: < 100 nM

CC(=O)c1c(F)c(C)c(-c2ccn3nc(NC(=O)[C@@H]4C[C@@H]4F)cc3c2)c2cn[nH]c12 [Example 566, (1S,2S)-N-(5-(7-acetyl-6-fluoro-5-methyl-1H-indazol-4-yl)pyrazolo[1,5-a]pyridin-2-yl)-2-fluorocyclopropane-1-carboxamide]
IC50: 101 to 500 nM

CN(c1ccccn1)c1c(F)c(Cl)c(-c2ccc3nc(NC(=O)[C@@H]4C[C@@H]4F)cn3c2)c2cn[nH]c12 [Example 337, (1S,2S)-N-(6-(5-chloro-6-fluoro-7-(methyl(pyridin-2-yl)amino)-1H-indazol-4-yl)imidazo[1,2-a]pyridin-2-yl)-2-fluorocyclopropane-1-carboxamide]
IC50: < 100 nM
